Results from US20110015246A2, “LOFEXIDINE ENANTIOMERS FOR USE AS A TREATMENT FOR CNS DISEASE AND PATHOLOGIES AND ITS CHIRAL SYNTHESIS” (Agean LLC, priority 2006, published 2011).
One block for each molecule: values may come before it.

How the values were obtained:
[1] = chills, vomiting, sweating, stomach cramps, diarrhea, muscle pain, runny nose and eyes; cited from earlier work
[2] = tested on: α2-adrenergic binding sites in rat brain membranes; assay: binding to α2-adrenergic binding sites in rat brain membranes
[3] = tested on: α1-adrenergic receptors in rat brain membranes; assay: binding to α1-adrenergic receptors in rat brain membranes
[4] = effect on blood pressure and bradycardiac activity (peripheral side effects); assay type: in vivo
pithed normotensive rats = assay: pressor effects after intravenous administration in pithed normotensive rats; assay type: in vivo, rat
[5] = tested on: pentobarbitone anesthetized normotensive rats; assay: mean arterial pressure and heart rate after intravenous administration in pentobarbitone anesthetized normotensive rats; assay type: in vivo, rat
pithed rat = assay: electrical stimulation-evoked heart rate and diastolic pressure increase in the pithed rat; assay type: in vivo
[6] = tested on: brain adrenergic receptors; assay: potency at brain adrenergic receptors involved in opioid detoxification; assay type: binding

SMILES: CC(Oc1c(Cl)cccc1Cl)C1=NCCN1 (racemic) [Lofexidine, 2-[1-(2,6-dichlorophenoxy)ethyl]-4,5-dihydro-1H-Imidazole]
reducing the symptoms associated with heroin withdrawal [1]: effective

potency at α2-adrenergic receptors, times less potent than (−)-lofexidine ([2]; (+) vs (−)): nine
potency at α1-adrenergic receptors, times less potent than (−)-lofexidine ([3]; rat brain membranes, (+) vs (−)): four
SMILES: CC(Oc1c(Cl)cccc1Cl)C1=NCCN1 (single isomer, unassigned; (+)) [(+)-lofexidine, 2-[1-(2,6-dichlorophenoxy)ethyl]-4,5-dihydro-1H-Imidazole]
peripheral side effects on blood pressure ([4]; compared to (±)-lofexidine): considerably lower
bradycardiac activity ([4]; in vivo): practically no effect
effect on reducing blood pressure ([4]; in vivo): practically no effect

affinity for α2-adrenergic binding sites relative to the (+)-enantiomer (times higher) ([2]; (−) vs (+)): about nine
affinity for α1-adrenergic receptors relative to the (+)-enantiomer (times greater) ([3]; (−) vs (+)): about four
SMILES: CC(Oc1c(Cl)cccc1Cl)C1=NCCN1 (single isomer, unassigned; (-)) [(−)-lofexidine, 2-[1-(2,6-dichlorophenoxy)ethyl]-4,5-dihydro-1H-Imidazole]
doses eliciting pressor effects, times lower than (+)-lofexidine (pithed normotensive rats): 20 times
effectiveness in decreasing heart rate relative to (+)-lofexidine [5]: twenty
effectiveness in decreasing mean arterial pressure relative to (+)-lofexidine [5]: twenty
potency in decreasing the increased heart rate evoked by electrical stimulation relative to (+)-lofexidine (pithed rat): thirty
impairment of electrical stimulation-induced increase in diastolic pressure (pithed rat; compared with (+)-lofexidine): more effectively unpaired
potency at brain adrenergic receptors compared with (+)-lofexidine [6]: more potent
